Measured values published in US7563766B2, “Methods and compositions for the promotion of a hair growth utilizing actin binding peptides” (The United States of America as represented by the …, priority 2002, dated 2009).
Ends that are not written are not given here.

Key:
hair follicles = experiment: Topical thymosin β4 on normal (unwounded) shaved rat skin; assay type: in vivo; details: 30 days after treatment
Protocol: In these experiments, 8 week old female Sprague Dawley rats were utilized. Thymosin β4 was applied on the shaved backs of the animals at a concentration of 0.5 mg/ml in hydrogel three times per week (Monday, Wednesday and Friday). The hair of the animals was observed over 30 days. Some of the animals were sacrificed on day 7 after the initiation of treatment, while others were sacrificed on day 30 after initiation of treatment. Tissue sections were prepared using methods known in the art, as indicated above in Example 1. The tissue section samples were all read and compared on a blind basis by an observer trained in dermatology.
One study used shaved rats where thymosin β4 was applied topically on one side of the shaved area and on the opposing lateral side a control vehicle was applied. […] The number of anagen follicles was approximately two-fold greater than in rats treated with the control vehicle alone (see FIG. 7D). […] The increased number of hairs in the anagen phase was retained with continued tri-weekly treatment over 30 days. However, within 14 days of ceasing treatment, the number of active hair follicles decreased to control levels.

[1] = tested on: male patients between 18 and 41 years of age; post-menopausal women; details: cited from earlier work
chick aortic arches = experiment: Chick aortic arch vessel sprouting assay; assay type: cell-based; design: key to Sprouting: − = no activity; +/− = low activity; + = active; ++ = high activity; details: for Sprouting: Table 2 score; for activity in the assays (endothelial cell migration and vessel sprouting): statement covers both migration and sprouting assays
Protocol: Chick aortic arch assay—The aortic arch of 13-day-old chick embryos was removed and placed in RPMI 1640. After removal of surrounding connective tissue, transverse sections of the arch were made (1 mm). The resulting aortic rings were carefully attached to the bottom of a 48-well plate, one ring per well, with 20-30 μl of Matrigel (Collaborative Biomedical Products). The rings were placed so that the lumen of each ring could be seen. More Matrigel was added onto the top of the rings to seal them in place. A 100 μl volume of human endothelial—SFM basal growth medium (Invitrogen) containing 1% penicillin streptomycin was added to each well. Thymosin β4, peptide fragments, and exogenous actin (Sigma Chemical Co.) were added to wells in serum-free medium, bringing the final volume of each well to 400 μl. ECGS (200 μg/ml) was used as a positive control. The plates were incubated for 24 hr at 37° C. Rings were fixed and stained with Diff-Quik solution II. Sprouting was scored in a blind assessment by an observer using 10× magnification on an Olympus microscope. Six wells were used for each condition tested, and each assay was done three times.

[2] = tested on: human umbilical vein endothelial cells; experiment: HUVEC migration, Boyden chamber assay; assay type: cell-based; design: key to Migration: − = no activity; +/− = low activity; + = active; ++ = high activity; details: for Migration: Table 2 score
Protocol: Cells—HUVECs were isolated and used at passages 2-5. Grant et al., J. Cell Sci. 108:3685-3694 (1995). The cells were cultured in RPMI 1640 (Invitrogen, Carlsbad, Calif.) supplemented with 20% bovine calf serum (Hyclone Laboratories, Logan, Utah), 200 μg/ml of endothelial cell growth supplement (ECGS) (Collaborative Biomedical Products, Bedford, Mass.), 0.8 U/ml heparin sodium (Fisher Scientific, Pittsburgh, Pa.), penicillin/streptomycin (Invitrogen, Carlsbad, Calif.), 10 μg/ml gentamycin (Invitrogen, Carlsbad, Calif.), and 1% fungizone (Invitrogen, Carlsbad, Calif.).
Boyden chamber assay—HUVEC migration assays were conducted in a 48-well micro-chemotaxis chamber (Neuro Probe Inc., Cabin John, Md.) as previously described in Salcedo et al., J. Immunol. 166:7571-7578 (2001). Briefly, PVP-free polycarbonate membranes with 8 μm pores were coated with 50 μg/ml of rat tail collagen (BD Biosciences, Bedford, Mass.) in RPMI 1640 that contained 25 mM HEPES (Invitrogen, Carlsbad, Calif.) at 4° C. overnight. The membranes were dried at least 1 hr prior to use. HUVECs were serum-starved for 2 hr, harvested using Versene (Invitrogen, Carlsbad, Calif.), and resuspended in binding medium that contained RPMI 1640 with 1% BSA and 25 mM HEPES. The lower wells of the chamber were loaded with 1, 10, 100, and 1000 ng/ml of thymosin β4 or peptide fragments that were diluted in binding medium. Basic fibroblast growth factor (bFGF) (200 ng/ml) was used as a positive control. Cells were added to the upper portion of the chamber at a concentration of 50,000 cells per well. The chambers were incubated at 37° C. for 4 hr. The filters were fixed and stained using Diff-Quik (VWR, Bridgeport, N.J.). The cells that successfully migrated through the pores of the membrane were manually quantitated using a CK-2 Olympus microscope at 10× magnification. Each condition was assayed in triplicate, and the assay was repeated twice.

[3] = 1 mg/day oral for 2 years, male patients 18 to 41 years

| Compound | Sprouting (chick aortic arches) | activity in the assays (endothelial cell migration and vessel sprouting) (chick aortic arches) | Migration [2] | also measured |
| --- | --- | --- | --- | --- |
| CC[C@H](C)[C@H](NC(=O)[C@H](CCC(=O)O)NC(=O)[C@H](C)NC(=O)[C@H](CCSC)NC(=O)[C@H](CC(=O)O)NC(=O)[C@@H]1CCCN1C(=O)[C@H](CCCCN)NC(=O)[C@H](CC(=O)O)NC(=O)[C@H](CO)NC(C)=O)C(=O)N[C@@H](CCC(=O)O)C(=O)N[C@@H](CCCCN)C(=O)N[C@@H](Cc1ccccc1)C(=O)N[C@@H](CC(=O)O)C(=O)N[C@@H](CCCCN)C(=O)N[C@@H](CO)C(=O)N[C@@H](CCCCN)C(=O)N[C@@H](CC(C)C)C(=O)N[C@@H](CCCCN)C(=O)N[C@@H](CCCCN)C(=O)N[C@H](C(=O)N[C@@H](CCC(=O)O)C(=O)N[C@H](C(=O)N[C@@H](CCC(N)=O)C(=O)N[C@@H](CCC(=O)O)C(=O)N[C@@H](CCCCN)C(=O)N[C@@H](CC(N)=O)C(=O)N1CCC[C@H]1C(=O)N[C@@H](CC(C)C)C(=O)N1CCC[C@H]1C(=O)N[C@@H](CO)C(=O)N[C@@H](CCCCN)C(=O)N[C@@H](CCC(=O)O)C(=O)N[C@H](C(=O)N[C@H](C(=O)N[C@@H](CCC(=O)O)C(=O)N[C@@H](CCC(N)=O)C(=O)N[C@@H](CCC(=O)O)C(=O)N[C@@H](CCCCN)C(=O)N[C@@H](CCC(N)=O)C(=O)N[C@@H](C)C(=O)NCC(=O)N[C@@H](CCC(=O)O)C(=O)N[C@@H](CO)C(=O)O)[C@@H](C)CC)[C@@H](C)O)[C@@H](C)O)[C@@H](C)O [Tβ4, Thymosin β4] |  |  |  | change in the epidermis or in the thickness of the dermis (hair follicles): little change; inflammatory cells (hair follicles): some increase |
| CC(C)(C)NC(=O)[C@H]1CC[C@H]2[C@@H]3CC[C@H]4NC(=O)C=C[C@]4(C)[C@H]3CC[C@]12C [finasteride] |  |  |  | cases in which further hair loss was prevented [1, 3]: 83%; cases with visible hair growth [1, 3]: 66%; efficacy in post-menopausal women ([1]; 1 mg/day over 1 year): ineffective; side effects ([1]; human, in vivo): lack of libido, lack of potency, and mild reduction in semen |
| Tβ4^1-8: proteolytic fragment of naturally occurring Tβ4, acSDKP DM (Ac-SDKPDM; UniProt P62328 2-7, looked up, fragment) | − | inactive |  |  |
| Tβ4^1-16: synthetic, the first 15 amino acid residues of SEQ ID NO: 1 (SDKPDMAEIEKFDKS; ends and bridges not checked; listed as Bos taurus) | +/− |  | − | vessel sprouting, in words (chick aortic arches): very weak activity |
| Tβ4^1-28: proteolytic fragment of naturally occurring Tβ4, residues 1 to KN (SDKPDMAEIEKFDKSKLKKTETQEKN; not fully specified; Thymosin beta-4; UniProt P62328 2-27, looked up, fragment) | +/− | generally highly active |  |  |
| Tβ4^7-43: proteolytic fragment of naturally occurring Tβ4, residues 7-43 (AEIEKFDKSKLKKTETQEKNPLPSKETIEQEKQAGES; Thymosin beta-4; UniProt P62328 8-44, looked up, fragment) | ++ | generally highly active | ++ |  |
| Tβ4^10-28: synthetic, amino acid residues 10-28 of SEQ ID NO: 1 (EKFDKSKLKKTETQEKNPL; listed as Bos taurus) | ++ | generally highly active | + |  |
| Tβ4^13-43: proteolytic fragment of naturally occurring Tβ4, residues 13-43 (DKSKLKKTETQEKNPLPSKETIEQEKQAGES; Thymosin beta-4; UniProt P62328 14-44, looked up, fragment) | +/− | generally highly active | + |  |
| Tβ4^18-19: synthetic, amino acid residues 13-19 of SEQ ID NO: 1 (DKSKLKK; listed as Bos taurus) | − | inactive |  |  |
| Tβ4^20-48: synthetic, amino acid residues 20-43 of SEQ ID NO: 1 (TETQEKNPLPSKETIEQEKQAGES; listed as Bos taurus) | + | generally highly active | ++ |  |
| Tβ4^27-48: proteolytic fragment PLP SKETI EQEKQ AGES (PLPSKETIEQEKQAGES; Thymosin beta-4; UniProt P62328 28-44, looked up, fragment) | +/− |  | + |  |
| Tβ4^Ala: naturally occurring β-thymosin, acADKP variant of Tβ4 (ADKPDMAEIEKFDKSKLKKTETQEKNPLPSKETIEQEKQAGES; Thymosin beta-4 N-terminal acetyl; UniProt P62328 2-44, looked up, variant S1A) | + | active |  |  |
| Tβ10: naturally occurring β-thymosin with conserved actin-binding domain (ADKPDMGEIASFDKAKLKKTETQEKNTLPTKETIEQEKRSEIS; UniProt P63313 2-44, looked up) | + | active | ++ |  |
| Tβ15^18-28: synthetic peptide of thymosin β15 amino acids 13-23, DK SKLKK TNTE | + |  |  | vessel sprouting, in words (chick aortic arches): active |
| amino acid residues 17-22 of SEQ ID NO: 1: six amino acid residues 17-22 of thymosin β4, shorter actin binding sequence (LKKTET; listed as Bos taurus) |  |  |  | endothelial cell migration, in words [2]: promotes endothelial cell migration |
| thymosin β4-sulfoxide (SDKPDMAEIEKFDKSKLKKTETQEKNPLPSKETIEQEKQAGES; Thymosin beta-4 methionine sulfoxide; UniProt P62328 2-44, looked up) [Tβ4^(O), sulfoxide form prepared from the naturally occurring peptide] | ++ | active | ++ |  |
